What was measured:
5-lipoxygenase = molecular target: T1, 5-lipoxygenase (Rattus norvegicus, UniProt P12527); assay: 5-LIPOX: inhibition of Ca++ ionophore (A23187) induced release of 5-lipoxygenase products (leukotriene B4 and 5-HETE) from [14C]arachidonic acid pre-labelled rat peritoneal neutrophils; format: cell-based; conditions: A23187-induced release of leukotriene B4 and 5-HETE, graphically from dose-response curves, read-out: 5-LIPOX (concentration of test compound causing 50% inhibition of control response)
T1 sequence (P12527 1-673): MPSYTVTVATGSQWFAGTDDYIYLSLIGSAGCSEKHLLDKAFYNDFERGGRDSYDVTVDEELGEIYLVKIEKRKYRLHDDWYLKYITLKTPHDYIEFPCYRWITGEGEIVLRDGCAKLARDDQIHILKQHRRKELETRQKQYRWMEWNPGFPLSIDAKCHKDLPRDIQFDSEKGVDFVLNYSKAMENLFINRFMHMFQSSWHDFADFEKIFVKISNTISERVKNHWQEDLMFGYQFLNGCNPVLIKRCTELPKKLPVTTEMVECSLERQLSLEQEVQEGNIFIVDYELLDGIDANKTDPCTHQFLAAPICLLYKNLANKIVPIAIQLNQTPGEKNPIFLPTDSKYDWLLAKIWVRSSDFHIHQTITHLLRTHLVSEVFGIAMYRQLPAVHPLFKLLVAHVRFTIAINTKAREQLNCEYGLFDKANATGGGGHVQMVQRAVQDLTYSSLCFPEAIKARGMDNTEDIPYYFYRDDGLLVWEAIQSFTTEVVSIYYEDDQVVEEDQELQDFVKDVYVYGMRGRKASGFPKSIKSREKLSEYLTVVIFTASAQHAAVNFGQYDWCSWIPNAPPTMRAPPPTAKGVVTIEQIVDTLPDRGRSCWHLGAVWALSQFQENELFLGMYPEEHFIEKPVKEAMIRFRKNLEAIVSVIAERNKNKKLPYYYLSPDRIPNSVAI
From the text: Inhibition of the Ca^++ ionophore (A23187) induced release of 5-lipoxygenase products, leukotriene B4 and 5-HETE, from [^14 C]arachidonic acid pre-labelled rat peritoneal neutrophils. Assayed by a modification of the method reported by Ahnfelt-Ronne et al [Biochemical Pharmacology, Vol. 31, No. 16, pp 2619-2624 (1982)]. Data presented in Table II are micromolar concentrations of test compound causing 50% inhibition of control response determined graphically from dose-response curves.

LTD4 receptor = molecular target: T2, LTD4 receptor (Cavia porcellus, UniProt Q2NNR5); assay: LTD4 RECEPTOR: inhibition of specific binding of [3H]-LTD4 to a membrane preparation of guinea-pig lung tissue; conditions: [3H]-LTD4, guinea-pig lung membranes; for IC50: graphically from dose-response curves, read-out: LTD4 receptor (concentration of tested compound causing 50% inhibition of specific binding)
T2 construct: membrane preparation of guinea-pig lung tissue; from tissue; host or cells: guinea-pig lung membranes
T2 sequence (Q2NNR5 1-340): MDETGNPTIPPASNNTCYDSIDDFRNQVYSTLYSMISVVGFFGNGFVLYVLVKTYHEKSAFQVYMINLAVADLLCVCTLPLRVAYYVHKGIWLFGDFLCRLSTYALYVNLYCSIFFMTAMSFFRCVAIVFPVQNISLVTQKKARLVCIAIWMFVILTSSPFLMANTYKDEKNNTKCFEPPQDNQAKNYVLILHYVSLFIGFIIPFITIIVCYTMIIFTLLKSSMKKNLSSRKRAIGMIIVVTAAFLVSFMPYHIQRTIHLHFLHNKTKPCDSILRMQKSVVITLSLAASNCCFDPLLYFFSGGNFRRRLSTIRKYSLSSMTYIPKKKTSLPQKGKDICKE
Protocol: Inhibition of the specific binding of [^3 H]-LTD4 to a membrane preparation of guinea-pig lung tissue was assayed by a modification of a method reported by Bruns et al [Life Sciences, Vol. 33, pp. 645-653 (1983)]and the data presented in Table II are micromolar concentrations of the tested compound causing 50% ihibition of specific binding determined graphically from dose-response curves.

Compound | IC50 (5-lipoxygenase) [µM] | IC50 (LTD4 receptor) [µM] | LTD4 receptor, remark printed beside the value (LTD4 receptor; remark in words)
O=c1[nH]c(SC2CCCc3cccnc32)nc2ccccc12 (stereo not shown) [Example 14, 2-[(5,6,7,8-tetrahydroquinoline-8-yl)thio]-4(3H)-quinazolinone] | > 100 | > 100 | 
COC(=O)Cc1ccc2oc(SC3CCCc4cccnc43)nc2c1 (stereo not shown) [Example 10, methyl 2-[(5,6,7,8-tetrahydro-8-quinolinyl)-thio]benzoxazole-5-acetate] | 14.1 | 12 | 
O=[N+]([O-])c1ccc2sc(SC3CCCc4cccnc43)nc2c1 (stereo not shown) [Example 16, 8-[(5-nitro-2-benzothiazolyl)thio]-5,6,7,8-tetrahydroquinoline] | 2 | > 100 | 
Clc1cccc2sc(SC3CCCc4cccnc43)nc12 (stereo not shown) [Example 23] | 12 | 33 | 
CCOC(=O)Cc1ccc2[nH]c(SC3CCCc4cccnc43)nc2c1 (stereo not shown) [Example 4, ethyl 2-[(5,6,7,8-tetrahydro-8-quinolinyl)-thio]-1H-benzimidazole-5-acetate] | 20 |  | 
Cc1ccc2sc(SC3CCCc4cccnc43)nc2c1 (stereo not shown) [Example 17, 8-[(5-methyl-2-benzothiazolyl)thio]-5,6,7,8-tetrahydroquinoline] | 1.5 | 7.1 | 
Cn1ccnc1SC1CCCc2cccnc21 (stereo not shown) [Example 26, 8-(1-methylimidazol-2-ylthio)-5,6,7,8-tetrahydroquinoline] | > 100 | > 100 | 
Clc1cc2nc(SC3CCCc4cccnc43)[nH]c2cc1Cl (stereo not shown) [Example 7, 8-(5,6-dichloro-1H-benzimidazol-2-ylthio)-5,6,7,8-tetrahydroquinoline] | 4.2 |  | 
Clc1cc2nc(SC3CCCc4cccnc43)sc2cc1Cl (stereo not shown) [Example 18, 8-[(5,6-dichloro-2-benzothiazolyl)thio]-5,6,7,8-tetrahydroquinoline] | 45 | 100 | 
Clc1ccc2sc(SC3CCCc4cccnc43)nc2c1 (stereo not shown) [Example 11, 8-[(5-chloro-2-benzothiazolyl)thio]-5,6,7,8-tetrahydroquinoline] | 1.5 | 100 | 
c1cnc2c(c1)CCCC2Sc1nc2ccccc2[nH]1 (stereo not shown) [Example 3, 8-(1H-benzimidazol-2-ylthio)-5,6,7,8-tetrahydroquinoline] | 35.1 | > 100 | 
Cc1ccc2nc(SC3CCCc4cccnc43)sc2c1 (stereo not shown) [Example 15, 8-[(6-methyl-2-benzothiazolyl)thio]-5,6,7,8-tetrahydroquinoline] | 2.3 | 9.5 | 
c1cnc2c(c1)CCCC2Sc1nc2ccccc2o1 (stereo not shown) [Example 9, 8-(2-benzoxazolylthio)-5,6,7,8-tetrahydroquinoline] | 16.9 | > 100 | 
O=[N+]([O-])c1ccc2nc(SC3CCCc4cccnc43)[nH]c2c1 (stereo not shown) [Example 5, 8-(6-nitro-1H-benzimidazol-2-ylthio)-5,6,7,8-tetrahydroquinoline] | 6.6 | > 100 | 
CCOc1ccc2nc(SC3CCCc4cccnc43)sc2c1 (stereo not shown) [Example 13, 8-[(6-ethoxy-2-benzothiazolyl)thio]-5,6,7,8-tetrahydroquinoline] | 1.2 | 9 | 
FC(F)(F)c1ccc2sc(SC3CCCc4cccnc43)nc2c1 (stereo not shown) [Example 21, 8-[(5-trifluoromethyl-2-benzothiazolyl)thio]-5,6,7,8-tetrahydroquinoline] | 2.6 | 18 | 
CCSc1ccc2nc(SC3CCCc4cccnc43)sc2c1 (stereo not shown) [Example 19, 8-[(6-ethylthio-2-benzothiazolyl)thio]-5,6,7,8-tetrahydroquinoline] | 1.1 | 1.7 | 

The remaining compounds from weak to strong by IC50 (5-lipoxygenase), led by results:

IC50 (5-lipoxygenase) [µM] | IC50 (LTD4 receptor) [µM] | LTD4 receptor, remark printed beside the value (LTD4 receptor; remark in words) | Compound
58 |  |  | COc1ccc2nc(SC3CCCc4cccnc43)[nH]c2c1 (stereo not shown) [Example 2, 8-(6-methoxy-1H-benzimidazol-2-ylthio)-5,6,7,8-tetrahydroquinoline]
25.1 | > 100 |  | c1cnc2c(c1)CCCC2Sc1nccs1 (stereo not shown) [Example 27, 8-(2-thiazolylthio)-5,6,7,8-tetrahydroquinoline]
22 | > 100 |  | Clc1cc(Cl)c2nc(SC3CCCc4cccnc43)sc2c1 (stereo not shown) [Example 22, 8-[(4,6-dichloro-2-benzothiazolyl)thio]-5,6,7,8-tetrahydroquinoline]
5 | 74 |  | Cc1ccc2nc(SC3CCCc4cccnc43)[nH]c2c1 (stereo not shown) [Example 6, 8-(6-methyl-1H-benzimidazol-2-ylthio)-5,6,7,8-tetrahydroquinoline]
4 | > 100 |  | O=[N+]([O-])c1ccc2nc(SC3CCCc4cccnc43)sc2c1 (stereo not shown) [Example 20]
3.5 | 14 |  | Cc1cccc2sc(SC3CCCc4cccnc43)nc12 (stereo not shown) [Example 24, 8-[(4-methyl-2-benzothiazolyl)thio]-5,6,7,8-tetrahydroquinoline]
3 | > 100 | pot. | c1ccc(-c2nc(SC3CCCc4cccnc43)[nH]c2-c2ccccc2)cc1 (stereo not shown) [Example 25, 8-(4,5-diphenyl-1H-imidazol-2-ylthio)-5,6,7,8-tetrahydroquinoline]
2.6 | 8.9 |  | Clc1ccc2nc(SC3CCCc4cccnc43)sc2c1 (stereo not shown) [Example 12]
1.9 | 6.3 |  | Clc1ccc2nc(SC3CCCc4cccnc43)[nH]c2c1 (stereo not shown) [Example 8, 8-(6-chloro-1H-benzimidazol-2-ylthio)-5,6,7,8-tetrahydroquinoline]
1.8 | 10 |  | c1cnc2c(c1)CCCC2Sc1nc2ccccc2s1 (stereo not shown) [Example 1, 8-(2-benzothiazolylthio)-5,6,7,8-tetrahydroquinoline]

Source: US4751233A, “8[2-(imidazolyl)thio] and 8[2-(thiazolyl)thio]-5,6,7,8-tetrahydroquinolines, and anti-allergic use thereof” (Roussel Uclaf, priority 1985, dated 1988)
